Reference: ChEMBL document CHEMBL1127126, “Conformationally restricted analogs of CP-99,994: synthesis of a spirocyclic amine” (Bioorg Med Chem Lett, 1993)

Biological target: Substance-P receptor (Homo sapiens, UniProt P25103)
Assay: Tested for inhibitory activity against substance P receptor.

Chain of Substance-P receptor (P25103 whole entry): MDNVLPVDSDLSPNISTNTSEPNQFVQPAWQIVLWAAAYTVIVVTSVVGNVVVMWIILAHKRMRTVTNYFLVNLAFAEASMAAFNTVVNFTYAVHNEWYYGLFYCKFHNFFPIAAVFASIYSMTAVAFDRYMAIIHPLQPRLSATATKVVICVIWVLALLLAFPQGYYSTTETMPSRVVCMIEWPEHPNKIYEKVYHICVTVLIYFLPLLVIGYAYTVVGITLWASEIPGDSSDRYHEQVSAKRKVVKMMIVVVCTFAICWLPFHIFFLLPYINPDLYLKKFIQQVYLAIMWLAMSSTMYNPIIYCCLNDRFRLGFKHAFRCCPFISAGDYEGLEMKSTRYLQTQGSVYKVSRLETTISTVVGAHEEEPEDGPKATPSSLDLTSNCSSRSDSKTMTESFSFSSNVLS

IC50: > 1 µM
SMILES: c1ccc([C@H]2NCCC[C@]23CC[C@H](c2ccccc2)N3)cc1
